Patent US20230398115A1, “MDM2 INHIBITORS AND COMBINATIONS THEREOF” (Novartis AG, priority 2015, published 2023)

Key:
[1] = system: HCT-116 xenografts; experiment: HCT-116 xenograft in nude mice, tumor volume; format: in vivo; conditions: for effect of sequential addition on tumor volume: day 19
Method: All animal experiments were done in strict adherence to the Swiss law for animal protection. Female Crl:NU(NCr)-Foxn1nu mice were purchased from Charles River Laboratories International Inc (Germany) and kept in a pathogen-controlled environment. Subcutaneous tumors of HCT-116 (KRAS mutant, PIK3CA mutant, p53 wild-type) were induced by concentrating 3 million cells in 100 μl of PBS and injecting them in the right flank of nude mice. The mice were randomly grouped, and treatment was started when the tumor size reached 50 to 250 mm3. Each cohort included 8 mice. Tumor sizes were monitored three times weekly, and volumes were calculated with the following formula: (mm3)=length×width2×0.5.
COMPOUND A was dissolved in 0.5% hydroxypropyl methylcellulose, COMPOUND B was dissolved in 1% carboxymethylcellulose containing 0.5% Tween-80% in distilled water (pH7.6-8.0), and COMPOUND C was dissolved in Microemulsion pre-concentrate 5. All drugs were dosed orally using 5-10 ml/kg. COMPOUND A was administered three times a week (3qw) at 100 mg/kg. COMPOUND B and COMPOUND C were administered daily (q24 h) at 0.3 and 100 mg/kg, respectively. The combination dosing schedule and dosage were the same as the single reagents.
Six treatment cohorts (G1-G6) were tested: • G1: vehicle (DMSO) • G2: COMPOUND C • G3: COMPOUND A=>after 9 days treatment COMPOUND C was added • G4: COMPOUND B=>after 9 days treatment COMPOUND C was added • G5: COMPOUND A+COMPOUND B=>after 9 days treatment COMPOUND C was added • G6: COMPOUND A+COMPOUND B+COMPOUND C
For each tumor at each time-point the size was normalized to the size before the start of the treatment to obtain the “% Change tumor volume” (FIG. 17-18, y-axis). For FIG. 17 at each time point the mean size of all tumors per cohort was calculated, and the error of the size using the standard error of the mean (SEM). For FIG. 18 p-values were calculated using a one-tailed t test.

[2] = system: GP2d; experiment: Cell proliferation, cell count by microscopy, HSA synergy (Examples 2-9); format: cell-based; conditions: Example 2, single agent, 72 h, cell count relative to DMSO
Method: (§1) After 24 h one 384-well plate per cell line was prepared for cell counting by microscopy (see below) without receiving treatment (=‘baseline’). The other cell plates were treated by transferring 25 nl of the 2000× compound from drug master plates using an ATS acoustic liquid dispenser (ECD Biosystems) and resulting in a final 1× concentration. COMPOUND A was used over a final concentration range of 13 nM-10 µM, COMPOUND B was used over a final concentration range of 13 nM-10 uM, and COMPOUND C was used over a final concentration range of 0.4 nM-0.3 µM (7 1:3 dilution steps). In order to assess the effect of the triple combination all individual COMPOUNDS (A, B, C), all three pair wise combinations (A+B, A+C, B+C), and the triple combination (A+B+C) were tested in the same experiment. Pair wise combinations and the triple combination were tested at a fixed ratio of 1:1 (for drug pairs) and 1:1:1 (for the drug triple) at each dilution resulting in 7 combination conditions per treatment. […] After compound addition 50 nl of 2 mM CellEvent Caspase-3/7 Green Detection Reagent (ThermoFisher, Catalog number C10423) were added to one of the three replicates using the HP D300 Digital Dispenser (Tecan). Caspase 3/7 induction was measured as a proxy for apoptosis induced by the treatments. Cells were treated for 72 h to 96 h depending on their doubling time (Table 4), and Caspase 3/7 activation was measured every 24 h by microscopy using an InCell Analyzer 2000 (GE Healthcare) equipped with a 4× objective and FITC excitation/emission filters. At the end of the treatment cells were prepared for cell counting by microscopy. Cells were fixed and permeabilised for 45 minutes in 4% PFA (Electron Microscopy Sciences, Catalog number 15714), 0.12% TX-100 (Electron Microscopy Sciences, Catalog number 22140) in PBS (Boston Bioproducts, Catalog number BM-220). After washing cells three times with PBS their DNA was stained for 30 minutes with Hoechst 33342 (ThermoFisher, Catalog number H3570) at a final concentration of 4 μg/ml. Cells were washed three times with PBS and then plates were heat-sealed using a PlateLoc (Agilent Technologies) with aluminum seals (Agilent Technologies, Catalog number 06644-001) and stored at 4° C. until imaging. All cells per well/treatment were captured in a single image by fluorescence microscopy using an InCell Analyzer 2000 (GE Healthcare) equipped with a 4× objective and DAPI excitation/emission filters.
(§2) Images were analyzed after adapting previously described methods (Horn, Sandmann et al. 2011) and using the Bioconductor package EBimage in R (Pau, Fuchs et al. 2010). Objects in both channels, DAPI (for Hoechst/DNA) and FITC (for Caspase 3/7), were segmented separately by adaptive thresholding and counted. A threshold for Caspase 3/7 positive objects was defined manually per cell line after comparing negative controls (DMSO) and positive controls (Staurosporine). By analyzing 17 additional object/nuclei features in the DNA channel (shape and intensity features) debris/fragmented nuclei were identified. To this end per cell line the distributions of the additional features between positive controls (Staurosporine) and negative controls (DMSO) were compared manually. Features that could differentiate between the conditions (e.g. a shift in the distribution of a feature measurement comparing DMSO with Staurosporine) where used to define the ‘debris’ population versus the population of ‘viable’ nuclei. The debris counts were subtracted from raw nuclei counts. The resulting nuclei number was used as measure of cell proliferation (‘cell count’).
(§3) The compound's effect on cell proliferation was calculated from the cell counts of the treatments relative to the cell counts of the negative control (DMSO), in FIG. 9 denoted as ‘Normalized cell count’ (=‘xnorm’) on the y-axis. Synergistic combinations were identified using the highest single agent model (HSA) as null hypothesis (Berenbaum 1989).

[3] = system: HCT-116; experiment: as above; format: cell-based; conditions: 72 h, cell count relative to DMSO
Method: as §1, §2, §3

[4] = system: LS-180; experiment: as above; format: cell-based; conditions: 72 h, cell count relative to DMSO
Method: as §1, §2, §3

[5] = system: LoVo; experiment: as above; format: cell-based; conditions: Example 2, single agent, 96 h, cell count relative to DMSO
Method: as §1, §2, §3

[6] = system: RKO; experiment: as above; format: cell-based; conditions: 72 h, cell count relative to DMSO
Method: as §1, §2, §3

[7] = system: COLO-678; experiment: Cell proliferation, cell count by microscopy (Example 1); format: cell-based; conditions: colo678, single agent, 96 h treatment, cell count relative to DMSO
Method: (§4) To test the effect of the combination of COMPOUND A or COMPOUND B with COMPOUND C on cell proliferation cells were plated in black 384-well microplates with clear bottom (Matrix/Thermo Scientific, Catalog number 4332) in 50 ul media per well at cell densities between 500 and 1250 cells/well (Table 1) and allowed to incubate at 37 degrees, 5% CO2 for 24 h. After 24 h one 384-well plate per cell line was prepared for cell counting by microscopy (see below) without receiving treatment (=‘baseline’). The other cell plates were treated using a HP D300 Digital Dispenser (Tecan) generating 6-point dose response curves with 2.5× dilution steps.
(§5) COMPOUND A was used over a final concentration range of 51 nM-5 uM, COMPOUND B over a final concentration range of 10 nM-1 uM, and COMPOUND C over a final concentration range of 1 nM-100 nM.
(§6) For the combinations of COMPOUND A or COMPOUND B with COMPOUND C the single agents were combined at 6 single agent doses generating a dose matrix of 6×6=36 combination treatments. Additionally, negative controls (DMSO=‘vehicle’) and positive controls (Staurosporine=killing cells, 7-point 1:2 dilution series for a dose range of 16 nm-1 uM) were transferred as treatment controls. Cells were treated for 72 h to 96 h depending on their doubling time (Table 1). At the end of the treatment cells were prepared for cell counting by microscopy. Cells were fixed and permeabilised for 45 minutes in 4% PFA (Electron Microscopy Sciences, Catalog number 15714), 0.12% TX-100 (Electron Microscopy Sciences, Catalog number 22140) in PBS (Boston Bioproducts, Catalog number BM-220). After washing cells three times with PBS their DNA was stained for 30 minutes with Hoechst 33342 (ThermoFisher, Catalog number H3570) at a final concentration of 4 μg/ml. Cells were washed three times with PBS and then plates were heat-sealed using a PlateLoc (Agilent Technologies) with aluminum seals (Agilent Technologies, Catalog number 06644-001) and stored at 4° C. until imaging. All cells per well/treatment were captured in a single image by fluorescence microscopy using an InCell Analyzer 2000 (GE Healthcare) equipped with a 4× objective and DAPI excitation/emission filters.
as §2
(§7) The compound's effect on cell proliferation was calculated from the cell counts of the treatments relative to the cell counts of the negative control (DMSO), in FIGS. 1 and 2 denoted as ‘Normalized cell count’ on the y-axis.

[8] = system: GP2d; experiment: as above; format: cell-based; conditions: single agent, 72 h treatment, cell count relative to DMSO
Method: as §4, §5, §6, §2, §7

[9] = system: LIM2405; experiment: as above; format: cell-based; conditions: single agent, 72 h treatment, cell count relative to DMSO
Method: as §4, §5, §6, §2, §7

[10] = system: LS-180; experiment: as above; format: cell-based; conditions: ls180, single agent, 72 h treatment, cell count relative to DMSO
Method: as §4, §5, §6, §2, §7

[11] = system: LoVo; experiment: as above; format: cell-based; conditions: single agent, 96 h treatment, cell count relative to DMSO
Method: as §4, §5, §6, §2, §7

[12] = system: RKO; experiment: as above; format: cell-based; conditions: single agent, 72 h treatment, cell count relative to DMSO
Method: as §4, §5, §6, §2, §7

[13] = system: SW48; experiment: as above; format: cell-based; conditions: single agent, 96 h treatment, cell count relative to DMSO
Method: as §4, §5, §6, §2, §7

Question: How did the “effect of sequential addition on tumor volume” value (“effect of sequential addition” for short) ([1]; ABT-263 100 mg/kg q24h added after 9 days to single agent COMPOUND A (G3)) turn out when `CC1(C)CCC(c2ccc(Cl)cc2)=C(CN2CCN(c3ccc(C(=O)NS(=O)(=O)c4ccc(N[C@H](CCN5CCOCC5)CSc5ccccc5)c(S(=O)(=O)C(F)(F)F)c4)cc3)CC2)C1` [ABT-263] was run?
Answer: The value was “no additional benefit”.

Question: And the “effect of sequential addition” value ([1]; ABT-263 100 mg/kg q24h added after 9 days to single agent trametinib (G4))?
Answer: Its value is “stopped tumor progression”.

Question: And the “effect of sequential addition” value ([1]; ABT-263 100 mg/kg q24h added after 9 days to the combination of COMPOUND A and trametinib (G5))?
Answer: Its value is “marked tumor regressions”.

Question: For `CC1(C)CCC(c2ccc(Cl)cc2)=C(CN2CCN(c3ccc(C(=O)NS(=O)(=O)c4ccc(N[C@H](CCN5CCOCC5)CSc5ccccc5)c(S(=O)(=O)C(F)(F)F)c4)cc3)CC2)C1` [COMPOUND C], which IC50 [2] is on record?
Answer: Its IC50 is over 10 µM.

Question: What about the IC50 ([3]; Example 2, single agent) of the same compound?
Answer: The IC50 was over 10 µM.

Question: What about the IC50 ([3]; Example 3, single agent) of the same compound?
Answer: Its IC50 is over 10 µM.

Question: And the IC50 ([3]; Example 4, single agent)?
Answer: The IC50 was over 10 µM.

Question: And the IC50 ([4]; Example 2, single agent)?
Answer: The IC50 was over 10 µM.

Question: And the IC50 ([4]; Example 3, single agent)?
Answer: The IC50 was over 10 µM.

Question: And the IC50 ([4]; Example 4, single agent)?
Answer: Its IC50 is over 10 µM.

Question: And the IC50 [5]?
Answer: Its IC50 is over 10 µM.

Question: And the IC50 ([6]; Example 2, single agent)?
Answer: Its IC50 is over 10 µM.

Question: What about the IC50 ([6]; Example 3, single agent) of the same compound?
Answer: Its IC50 is over 10 µM.

Question: What about the IC50 ([6]; Example 4, single agent) of the same compound?
Answer: Its IC50 is over 10 µM.

Question: How did the IC75 [7] turn out when `CC(=O)Nc1cccc(-n2c(=O)n(C3CC3)c(=O)c3c(Nc4ccc(I)cc4F)n(C)c(=O)c(C)c32)c1` [trametinib, N-(3-{3-cyclopropyl-5-[(2-fluoro-4-iodophenyl)amino]-6,8-dimethyl-2,4,7-trioxo-3,4,6,7-tetrahydropyrido[4,3-d]pyrimidin-1(2H)-yl}phenyl)acetamide] was run?
Answer: The IC75 was over 0.1.

Question: And the IC75 [8]?
Answer: The IC75 was over 0.1.

Question: And the IC75 [9]?
Answer: Its IC75 is 0.008.

Question: And the IC75 [10]?
Answer: The IC75 was 0.014.

Question: What about the IC75 [11] of the same compound?
Answer: Its IC75 is 0.018.

Question: What about the IC75 [12] of the same compound?
Answer: The IC75 was over 0.1.

Question: And the IC75 [13]?
Answer: Its IC75 is 0.003.

Question: And the “tumor response (% change tumor volume)” value ([1]; nude mice, oral, COMPOUND A 100 mg/kg 3qw, trametinib 0.3 mg/kg q24h, ABT-263 100 mg/kg q24h, 9 days of treatment)?
Answer: The value was “progressive disease”.
